{
  "source": "paper PMC7828495",
  "about": "“Synthesis, Stability, and Antidiabetic Activity Evaluation of (−)-Epigallocatechin Gallate (EGCG) Palmitate Derived from Natural Tea Polyphenols” (Molecules, 2021)",
  "key": {"human": {"test_system": "human", "details": "ref Material Safety Data Sheet (MSDS); cited from earlier work"}, "Mouse": {"test_system": "Mouse", "details": "cited from earlier work"}, "[1]": {"assay": "Storage stability of powder in open air", "assay_type": "physicochemical", "details": "room temperature, 60 d", "excerpt": "To study the storage stability of EGCG and PEGCG powder, […] of the two powders were kept in the open air at room temperature, respectively. After 60 days, aliquots of the two powders were sampled and subjected to HPLC analysis, respectively. The HPLC condition was the same as Item 2.5."}, "[2]": {"assay": "pH stability in alkalescent condition (HPLC)", "assay_type": "physicochemical", "details": "ethanol/PBS 80:20, pH 7.2, 37 °C, open air, 1.3 mM", "description": "(§1) Since the intestine system is alkalescent, it is necessary to assess the stability of EGCG and PEGCG under this condition.\nEquivalent molar concentrations (1.3 mM) of EGCG and PEGCG were incubated in Pyrex test tubes (20 × 1.6 cm, i.d.) in the open air at 37 °C, respectively, without any agitation. Aliquots (20 µL) of the incubation solution was periodically (1, 2, 5 h) sampled and subjected to HPLC analysis, respectively. HPLC condition was the same as Item 2.5."}, "[3]": {"parameters": "method as in PMID 9177723", "details": "rats, 56 mg of EGCG orally; cited from earlier work"}, "[4]": {"parameters": "method as in PMID 16302765, PMID 12499265", "details": "sodium phosphate buffer pH 7.4, 3 h; cited from earlier work"}, "[5]": {"parameters": "method as in PMID 9177723", "details": "humans, single oral intake of 97 mg; cited from earlier work"}, "α-glucosidase": {"target": "T1, α-glucosidase (Saccharomyces cerevisiae, UniProt P53341)", "T1 construct": "purchased Sinopharm Group Chemical Reagent Co. (Shanghai, China)", "T1 sequence (P53341 whole entry)": "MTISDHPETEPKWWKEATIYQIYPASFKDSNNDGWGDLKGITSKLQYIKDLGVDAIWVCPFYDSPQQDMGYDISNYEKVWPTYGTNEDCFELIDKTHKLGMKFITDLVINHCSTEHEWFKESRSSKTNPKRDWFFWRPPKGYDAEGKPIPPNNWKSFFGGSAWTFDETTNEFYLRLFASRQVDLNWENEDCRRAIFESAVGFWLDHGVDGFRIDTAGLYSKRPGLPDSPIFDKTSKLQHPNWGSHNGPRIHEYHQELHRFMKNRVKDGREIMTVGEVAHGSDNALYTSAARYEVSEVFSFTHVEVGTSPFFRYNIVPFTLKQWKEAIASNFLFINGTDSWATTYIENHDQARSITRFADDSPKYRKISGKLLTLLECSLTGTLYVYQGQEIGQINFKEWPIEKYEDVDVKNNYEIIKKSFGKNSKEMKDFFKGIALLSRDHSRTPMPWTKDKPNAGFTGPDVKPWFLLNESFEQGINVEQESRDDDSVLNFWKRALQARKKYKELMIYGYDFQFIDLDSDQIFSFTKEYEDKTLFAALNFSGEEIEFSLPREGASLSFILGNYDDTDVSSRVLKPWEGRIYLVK", "assay": "α-Glucosidase inhibition assay (PNPG substrate)", "assay_type": "biochemical", "description": "(§2) All of the other solvents and chemicals used were obtained from Sinopharm Group Chemical Reagent Co., Ltd. (Shanghai, China) and were of analytical grade. Sodium phosphate buffer (PBS) was purchased from Solarbio Co. (Beijing, China) and was prepared to make a concentration of 0.01 M aqueous solution (pH 7.2).\nThe activity of α-glucosidase was determined in a 96-well plate based on 4-Nitrophenyl […]-D-glucopyranoside (PNPG) as a substrate."}, "[6]": {"assay": "Thermal stability (TG analysis)", "assay_type": "physicochemical", "details": "30 to 400 °C, 10 °C/min, nitrogen", "description": "The thermal stability behaviors of EGCG and PEGCG were investigated on a TG apparatus (SDT […], TA Instruments, New Castle, DE, USA). About 3.0 mg of each sample was used to perform the analysis by putting the powder on a TG pan. The sample was scanned from 30 to 400 °C with a heating rate of 10 °C/min under a nitrogen atmosphere."}, "Solubility in PBS": {"assay": "Solubility in PBS", "assay_type": "physicochemical", "excerpt": "as §1"}, "[7]": {"test_system": "porcine pancreatic α-amylase", "sequence (P06278 30-512)": "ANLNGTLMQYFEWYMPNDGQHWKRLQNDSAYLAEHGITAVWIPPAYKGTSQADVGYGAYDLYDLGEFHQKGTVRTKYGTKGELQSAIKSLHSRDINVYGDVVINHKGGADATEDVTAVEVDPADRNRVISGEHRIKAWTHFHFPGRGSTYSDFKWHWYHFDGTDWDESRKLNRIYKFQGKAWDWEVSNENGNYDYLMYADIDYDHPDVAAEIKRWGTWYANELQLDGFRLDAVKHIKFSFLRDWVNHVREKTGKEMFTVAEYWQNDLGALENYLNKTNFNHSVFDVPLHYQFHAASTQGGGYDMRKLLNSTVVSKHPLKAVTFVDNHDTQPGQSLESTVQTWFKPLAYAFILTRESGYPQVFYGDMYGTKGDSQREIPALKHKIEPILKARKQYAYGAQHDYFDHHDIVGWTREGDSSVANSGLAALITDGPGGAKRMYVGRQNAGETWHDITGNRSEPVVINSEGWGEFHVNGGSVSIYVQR", "assay": "α-Amylase inhibition assay", "assay_type": "biochemical", "details": "ratio of IC50 values versus EGCG", "description": "as §2"}, "[8]": {"details": "Mouse, acute toxicity, ref Material Safety Data Sheet (MSDS)"}},
  "note": "Where two headings read alike, the source gives them in different places.",
  "data": [
    {"smiles": "CN(C)c1ccncc1", "note": "[4-dimethylaminopyridine (DMAP), 4-dimethylaminopyridine]", "values": [
      {"measurement": "Harm to Human Health", "setting": "human", "value": "Irritating to the eyes; eating poisonous"},
      {"measurement": "Acute toxicity grade", "setting": "Mouse; [8]", "value": "LD50 250 mg/kg, medium toxicity"}
    ]},
    {"smiles": "O=C(O[C@@H]1Cc2c(O)cc(O)cc2O[C@@H]1c1cc(O)c(O)c(O)c1)c1cc(O)c(O)c(O)c1", "note": "[EGCG, (−)-Epigallocatechin gallate]", "values": [
      {"measurement": "remained after storage", "setting": "[1]", "value": 45, "unit": "%"},
      {"measurement": "degraded / hydrolyzed after 1 h", "setting": "[2]", "value": 93, "unit": "%"},
      {"measurement": "degraded / hydrolyzed after 5 h", "setting": "[2]", "value": "utterly degraded"},
      {"measurement": "absorbed after oral dose", "setting": "[3]", "value": 0.01, "unit": "%"},
      {"measurement": "EGCG lost", "setting": "[4]", "value": 90, "unit": "%"},
      {"measurement": "absorbed after oral dose", "setting": "[5]", "value": 0.32, "unit": "%"},
      {"measurement": "IC50", "setting": "α-glucosidase", "value": "11.5 ± 0.02", "unit": "µM"},
      {"measurement": "thermal decomposition temperature", "setting": "[6]", "value": 234.5, "unit": "°C"}
    ]},
    {"smiles": "CCCCCCCCCCCCCCCC(=O)Oc1c(O)cc([C@H]2Oc3cc(O)cc(O)c3C[C@H]2OC(=O)c2cc(O)c(O)c(O)c2)cc1O", "note": "[PEGCG, 4′-O-palmitoyl EGCG]", "values": [
      {"measurement": "remained after storage", "setting": "[1]", "value": 78, "unit": "%"},
      {"measurement": "solubility in PBS", "setting": "Solubility in PBS", "value": "insoluble in PBS"},
      {"measurement": "degraded / hydrolyzed after 1 h", "setting": "[2]", "value": "most of the PEGCG was hydrolyzed to EGCG and its dimers"},
      {"measurement": "degraded / hydrolyzed after 5 h", "setting": "[2]", "value": 100, "unit": "%"},
      {"measurement": "α-amylase inhibitory activity relative to EGCG", "setting": "[7]", "value": 4.5, "unit": "times"},
      {"measurement": "IC50", "setting": "α-glucosidase; 37 °C, PNPG substrate, read-out: IC50 for α-Glucosidase", "value": "0.22 ± 0.03", "unit": "µM"},
      {"measurement": "α-glucosidase inhibitory activity relative to EGCG", "setting": "α-glucosidase; ratio of IC50 values versus EGCG", "value": 52, "unit": "times"},
      {"measurement": "α-glucosidase inhibitory activity relative to acarbose", "setting": "α-glucosidase; ratio of IC50 values versus acarbose", "value": 0.68, "unit": "times"},
      {"measurement": "thermal decomposition temperature", "setting": "[6]", "value": 311.19, "unit": "°C"}
    ]},
    {"smiles": "c1ccncc1", "note": "[Pyridine]", "values": [
      {"measurement": "Harm to Human Health", "setting": "human", "value": "Strong irritant; anesthetizes the central nervous system"},
      {"measurement": "Acute toxicity grade", "setting": "Mouse; mouse, in vivo", "value": "LD50 1580 mg/kg, mild toxicity"},
      {"measurement": "LD50", "setting": "Mouse; mouse, in vivo", "value": "LD50 1580 mg/kg, mild toxicity"}
    ]},
    {"smiles": "CC(=O)[O-].[Na+]", "note": "[Sodium acetate]", "values": [
      {"measurement": "Harm to Human Health", "setting": "human", "value": "None"},
      {"measurement": "Acute toxicity grade", "setting": "Mouse; mouse, in vivo", "value": "LD50 25,956 mg/kg, non-toxic"},
      {"measurement": "LD50", "setting": "Mouse; mouse, in vivo", "value": "LD50 25,956 mg/kg, non-toxic"}
    ]},
    {"smiles": "O=C([O-])[O-].[Na+].[Na+]", "note": "[Sodium carbonate]", "values": [
      {"measurement": "Harm to Human Health", "setting": "human", "value": "Irritant and corrosive"}
    ]},
    {"smiles": "CCN(CC)CC", "note": "[Triethylamine]", "values": [
      {"measurement": "Harm to Human Health", "setting": "human", "value": "strong irritant to the respiratory tract; after inhaling can cause pulmonary edema or even death"},
      {"measurement": "Acute toxicity grade", "setting": "Mouse; [8]", "value": "medium toxicity"},
      {"measurement": "LD50", "setting": "Mouse; mouse, in vivo", "value": 460, "unit": "mg/kg"}
    ]}
  ]
}
